Test results as given in patent US8853215B2, “Derivatives of N-acyl-N′-phenylpiperazine useful (inter alia) for the prophylaxis or treatment of diabetes” (Takeda Pharmaceutical Company Limited, priority 2009, dated 2014).

How the values were obtained:
human RBP4 = human RBP4 (Homo sapiens (Human), UniProt P02753); experiment: Binding assay by Retinol-RBP4-TTR ELISA; conditions: at 10 μM compound; read-out: human RBP4 binding inhibitory activity(% at 10 μM)
Method: The action of the compound of the present invention to inhibit binding of RBP4 and retinol and TTR was evaluated using the Retinol-RBP4-TTR ELISA system shown below.
1F: Binding Assay by Retinol-RBP4-TTR ELISA
This ELISA system detects a complex of RBP4 and TTR based on a retinol-dependent binding of RBP4 to TTR.
His-tagged human RBP4 used was prepared in the above-mentioned 1C.
Biotinylate human TTR used was prepared in the above-mentioned 1E.
Streptavidin (20 μl) (10 μg/ml Streptavidin type II (Wako Pure Chemical Industries, Ltd.), 10 mM Tris-HCl (pH 7.5), 10 mM NaCl) was added to a 384 well black plate (Nunc MaxiSorp, Thermo Fisher Scientific Inc.), and the plate was subjected to centrifugation (1000 rpm, 1 min) and coated overnight at 4° C. The plate was washed twice with PBST (PBS, 0.05% Tween 20, 100 μl/well) and blocked with 25% Block Ace (Snow Brand Milk Products Co., Ltd., PBS, 100 μl/well). The plate was subjected to centrifugation (1000 rpm, 1 min) and incubated at room temperature for 4 hr or overnight at 4° C. The plate was washed twice with PBST (PBS, 0.05% Tween 20, 100 μl/well), and biotinylate human TTR (stock solution concentration 1.0 mg/ml) diluted 750-fold with PBST was added at 20 μl/well. The plate was subjected to centrifugation (1000 rpm, 1 min) and stood still at room temperature for 1.5 hr or overnight at 4° C. The plate was washed 3 times with PBST (100 μl/well), and His-tagged human RBP4 (stock solution concentration 0.96 mg/ml) diluted 4000-fold with a reaction buffer (50 mM Tris-HCl, 150 mM NaCl, 0.005% Tween 20, 1 mM DTT, 0.1% BSA) was added at 10 μl/well. The dilution series (8 doses from 10 mM, 200-fold concentration) of the compound was prepared with DMSO, and 1 μl of each was added to a reaction buffer (200 μl) containing retinol (50 nM) (Sigma-Aldrich Co.). A reaction buffer (200 μl) containing retinol and added with DMSO was used as a positive control, and reaction buffer (200 μl) free of retinol and added with DMSO was used as a negative control. Mixed solutions of retinol and the compound were added to the plate at 15 μl/well. The plate was stirred in a platemixer subjected to centrifugation (1000 rpm, 1 min) and reacted at room temperature for 2 hr. A 35% Block Ace solution diluted with the reaction buffer was added at 10 μl/well, centrifuged (1000 rpm, 1 min) and reacted at room temperature for 30 min. The plate was washed 3 times with PBST (100 μl/well) and SuperSignal ELISA Femto Maximum Sensitivity Substrate reagent (PIERCE, Thermo Fisher Scientific Inc.) was added at 30 μl/well, and the luminescence was measured by a platereader (Wallac).
The binding inhibitory activity of the compound was determined by 100×(positive control value-test compound value)/(positive control value-negative control value). The binding activity (IC50) was calculated from the binding inhibitory rate at each compound concentration using a graph drawing software, GraphPad Prism (GraphPad Software Inc.).

RBP4 = RBP4 (Mus musculus (Mouse), UniProt Q00724); experiment: Single administration test in mice, plasma RBP4 by ELISA; format: in vivo; conditions: male C57BL/6J or ICR mice, 50 mg/kg oral single dose, mean±SD; for RBP4 (% of initial/Control) 0 hr: 0 hr (just before the administration); for RBP4 (% of initial/Control) 4 hr: 4 hr after administration; for RBP4 (% of initial/Control) 7 hr: 7 hr after administration; for RBP4 (% of initial/Control) 24 hr: 24 hr after administration
Method: The action of the compounds of the present invention to reduce plasma RBP4 level was evaluated using the animal model shown below.
Male C57BL/6J and ICR mice were purchased from Charles River (Japan) and maintained on a normal diet (CE2, CLAE Japan, Inc.) and tap water. Animals were housed in a temperature-controlled room adjusted to a 12-hour light/12-hour dark cycle beginning at 7:00 and 19:00, respectively. All procedures were conducted according to the experimental animal care use committee of Takeda Pharmaceutical Company.
Male 6-12-week-old C57BL/6J or ICR mice were housed individually and fed CE2 for 4-6 days. After acclimatization, mice were divided into groups based on their body weight. Compounds were suspended in 0.5% (w/v) methylcellulose in water and given orally to mice at a dose of 50 mg/10 mL/kg of body weight (three to five mice per group). Blood samples were obtained from orbital vein with sodium heparin as an anticoagulant at time 0 hr (just before the administration), 4 hr, 7 hr, and 24 hr after the administration, followed by plasma separation by centrifugation. Plasma RBP4 levels were measured by enzyme-linked immunosorbent assay described in the following section.
Plasma samples were analyzed in duplicate for RBP4 by an enzyme-linked immunosorbent assay. Mouse recombinant RBP4 (Takeda Pharmaceutical Company) was used as standards, and the assay range was 0.313-20 ng/ml. Samples were diluted 10,000-fold with phosphate-buffered saline (PBS) (Sigma) containing 10% (w/v) BlockAce (Dainippon Sumitomo Pharma Co., Ltd). Rabbit anti-RBP4 polyclonal antibody (100 μL/well of 50 μg/mL, Hokudo Co, Ltd) was incubated in a 96-well plate (Nalge Nunc International K.K.) for overnight at 4° C. Subsequently, the plates were washed with PBS-T (Wako Pure Chemical Industries, Ltd.) and blocked with PBS containing 25% BlockAce for 1 hr at room temperature. After another washing with PBS-T, samples and standards were applied to the well, and the plates were incubated for 2 hr at room temperature. After a washing the wells, peroxidase-labeled (Dojindo Laboratories) anti-RBP4 (100 μL/well) was added to the wells, and then the plates were incubated for 1 hr at room temperature. After a final washing with PBS-T, substrate solution 3,3,5,5-tetramethylbenzidine (Sigma) was added to the wells, and the plates were placed in the dark for 5-20 min at room temperature. The reaction was stopped with 0.5 M sulphuric acid and the optical density was measured with a spectrophotometer at 450 nm. The changes in plasma RBP4 levels were expressed as % of initial/Control. All data are presented as mean±SD.

inhibition at 10 µM (human RBP4) [%]	RBP4 (% of initial/Control) 0 hr (RBP4)	RBP4 (% of initial/Control) 4 hr (RBP4)	RBP4 (% of initial/Control) 7 hr (RBP4)	RBP4 (% of initial/Control) 24 hr (RBP4)	SMILES
100	100.0 ± 23.0 % of initial/Control	63.0 ± 2.0 % of initial/Control	61.0 ± 2.2 % of initial/Control	93.0 ± 9.6 % of initial/Control	CC(C)(C)c1cc(Cl)ccc1N1CCN(C(=O)C(=O)O)CC1 [Example 180, [4-(2-tert-Butyl-4-chlorophenyl)piperazin-1-yl](oxo)acetic acid]
100	100.0 ± 8.0 % of initial/Control	65.0 ± 2.2 % of initial/Control	61.2 ± 2.3 % of initial/Control	127.6 ± 40.9 % of initial/Control	CC(C)(C)c1ccccc1N1CCN(C(=O)C(=O)N2CCC(C(=O)O)C2)CC1 (stereo not drawn) [Example 191, 1-{[4-(2-tert-Butylphenyl)piperazin-1-yl](oxo)acetyl}pyrrolidine-3-carboxylic acid]
100	100.0 ± 22.3 % of initial/Control	72.2 ± 3.6 % of initial/Control	67.0 ± 1.8 % of initial/Control	91.3 ± 15.9 % of initial/Control	CC(C)(C)c1ccccc1N1CCN(C(=O)C(=O)Nc2ccc(CCC(=O)O)cc2)CC1 [Example 197, 3-[4-({[4-(2-tert-Butylphenyl)piperazin-1-yl](oxo)acetyl}amino)phenyl]propanoic acid]
99	100.0 ± 9.8 % of initial/Control	65.0 ± 0.7 % of initial/Control	60.3 ± 1.0 % of initial/Control	100.2 ± 13.6 % of initial/Control	CC(C)(C)c1ccccc1N1CCN(C(=O)C(=O)Nc2ccc(OCC(=O)O)cc2)CC1 [Example 201, [4-({[4-(2-tert-Butylphenyl)piperazin-1-yl](oxo)acetyl}amino)phenoxy]acetic acid]
100	100 ± 2.82 % of initial/Control	43.4 ± 1.8 % of initial/Control	37.2 ± 1.0 % of initial/Control	107.9 ± 15.6 % of initial/Control	CC(C)(C)c1ccccc1N1CCN(C(=O)C(=O)NCCc2ccc(C(=O)O)cc2)CC1 [Example 203, 4-[2-({[4-(2-tert-Butylphenyl)piperazin-1-yl](oxo)acetyl}amino)ethyl]benzoic acid]
100	100.0 ± 18.9 % of initial/Control	66.3 ± 5.7 % of initial/Control	75.0 ± 10.8 % of initial/Control	125.7 ± 20.9 % of initial/Control	Cc1nc(C(=O)N2CCN(c3ccccc3C(C)(C)C)CC2)cn1CC(=O)O [Example 205, (4-{[4-(2-tert-Butylphenyl)piperazin-1-yl]carbonyl}-2-methyl-1H-imidazol-1-yl)acetic acid]
100	100.0 ± 27.4 % of initial/Control	43.1 ± 1.7 % of initial/Control	37.6 ± 0.7 % of initial/Control	52.0 ± 2.8 % of initial/Control	CC(C)(C)c1cc(Cl)ccc1N1CCN(C(=O)CC(=O)O)CC1 [Example 207, 3-[4-(2-tert-Butyl-4-chlorophenyl)piperazin-1-yl]-3-oxopropanoic acid]
99	100.0 ± 10.5 % of initial/Control	55.3 ± 4.0 % of initial/Control	54.9 ± 8.8 % of initial/Control	97.6 ± 24.5 % of initial/Control	CC(C)(C)c1cc(Cl)ccc1N1CCN(C(=O)c2ccc(OCC(=O)O)cn2)CC1 [Example 210, [(6-{[4-(2-tert-Butyl-4-chlorophenyl)piperazin-1-yl]carbonyl}pyridin-3-yl)oxy]acetic acid]
100	100.0 ± 16.6 % of initial/Control	43.4 ± 4.7 % of initial/Control	36.9 ± 1.0 % of initial/Control	66.4 ± 28.1 % of initial/Control	CC(C)(C)c1ccccc1N1CCN(C(=O)c2cc(OCC(=O)O)no2)CC1 [Example 216, [(5-{[4-(2-tert-Butylphenyl)piperazin-1-yl]carbonyl}isoxazol-3-yl)oxy]acetic acid]
